In patent US7674813B2, “Heterocyclic sulfonamide inhibitors of beta amyloid production containing an azole” (Wyeth, priority 2004, dated 2010):

What was measured:
beta amyloid 42 = experiment: Aβ40/42 ELISA Assay (Aβ42); format: cell-based; details: CHO cells carrying the APP-REP-NL plasmid, 22 hours, sandwich ELISA; for EC50: Cricetulus griseus
Method: (§1) Compounds are diluted from DMSO stocks to 2 μM and below in a cell culture medium. Compounds are then applied to CHO cells carrying the APP-REP-NL plasmid [Sudhir et. al, J. Biolog. Chem. 267:25602-25608 (1992)] for a period of 22 hours. After the conditioning period, medium is collected, diluted in assay buffer containing protein, and samples, controls, and synthetic peptide standards are incubated on a prepared ELISA plate. Using a sandwich ELISA with antibodies specifically directed against the carboxyl terminus of beta amyloid 40 or 42 (analogous to the method reported by Haugabook et al., J. Neurosci. Methods 108:171-179 (2001) but using goat anti-mouse IgG1 (source: Southern Biotech) as the anchor, 6E10 as the capture antibody (Source: SENETEK), rabbit antiAβ40 and antiAβ42 (source: QCB) and APL-donkey anti-rabbit IgG (H+L, source: Southern Biotech) as the detection antibody), the effect of the compound treatment on the cellular production of extracellular beta amyloid is quantified. Cells treated with compound are subsequently incubated in cell culture medium containing MTS-formazan. After a short incubation period, MTS/medium containing plates are read in a spectrophotometer to determine the extent to which compound toxicity affected the cell's metabolism and ability to synthesize beta amyloid.
(§2) A. Test Samples: compound samples are supplied as 20 mM stock solutions in a 100% DMSO solution.
(§3) B. APP-REP-NL cells: Qualified cell lines are carried from week to week using 1:100 dilutions and are cultured in DMEM supplemented with 1× antibiotic/antimycotic, 200 ug/ml of G418 antibiotic, and 10% certified fetal calf serum. Cells are also banked in liquid nitrogen. Periodically, beta amyloid production is assessed, and cells are either kept in culture or replaced with progenitors at full expression.
(§4) C. Antibodies: From certified lots that have already been qualified in this assay. Antibodies are stored in small frozen aliquots at −80° C. that are thawed and used.
(§5) A compound is considered active if it has an EC50 for Aβ40 reduction of <100 μM and no toxicity at doses in the vicinity of the EC50.

beta amyloid 40 = experiment: Aβ40/42 ELISA Assay (Aβ40); format: cell-based; details: Cricetulus griseus; CHO cells carrying the APP-REP-NL plasmid, 22 hours, sandwich ELISA
Method: as §1, §2, §3, §4, §5

[1] = test system: amyloid precursor protein (APP) proteolysis; experiment: Repressor Release Assay (RRA); format: cell-based; design: key to RRA data (footnote symbols): **: Inactive due to toxicity; however, this compound, at 3-4 μM, reduces Aβ levels by 50% in CHO cells transfected with human APP695 as measured by ELISA without exhibiting toxicity.; ***: Inactive; however, this compound, at 1-4 μM, reduces Aβ levels by 50% in CHO cells transfected with human APP695 as measured by ELISA without exhibiting toxicity; details: transfected CHO-K1 cells; for fold induction at 20 µg/mL: Cricetulus griseus, CHO-K1, all compounds tested at 20 μg/mL, luciferase activity over diluent control, read-out: RRA data (Fold increase of APPI)
Method: The beta amyloid inhibitory activity of many of the compounds of the present invention has been determined using the Repressor Release Assay (RRA). See, Table 3 below. A compound is considered active in RRA if it leads to at least a 1.5 fold increase in luciferase activity at 20 μg/mL and is non-toxic.
The compound is considered active in RRA if it leads to at least a 1.5 fold increase in APPI as measured by an increase in luciferase activity at 20 μg/mL and is non-toxic. Shuey, D. J., Sheiffele, P., Jones, D., Cockett, M. I., and Quinet, E. M. (1999) Repressor release: a useful tool for monitoring amyloid precursor protein (APP) proteolysis in mammalian cells. Society for Neuroscience Abstracts, Vol. 25, 29th Annual Meeting of Society for Neuroscience, Miami Beach, Fla., Oct. 23-28, 1999.
CHO—K1 cells are cultured in whole DMEM media (DMEM—High Glucose with 10% fetal bovine serum, 1% Non-essential Amino Acids, and 1% Penicillin-Streptomycin) at 37° C. with 5% CO2. Two million cells are plated into 10-cm dishes 24 hrs prior to transfection.
Transient transfections are completed as recommended by Gibco BRL using their Lipofectamine Plus system. First, 6 μg of pRSVO-luc and 6 μg of APP-lacI construct DNA are added to 460 μL Opti-Mem transfection media and incubated with 30 μL Plus reagent for 15 minutes. Then, a lipid mixture of 40 μL Lipofectamine reagent and 460 μL Opti-Mem transfection media is incubated with the DNA-Plus reagent mixture for 15 minutes. During the DNA-lipid incubation, the CHO—K1 cells are washed once and covered in 5.0 mL DMEM media without Penicillin-Streptomycin. The DNA-lipid preparation is then layered onto these cells and incubated at 37° C. overnight.
One and one half million transfected cells per well (100 μL total volume) are plated into sterile, opaque Packard 96-well Cultur-Plates in clear DMEM whole media (DMEM—without phenol red) and incubated at 37° C. with 5% CO2 for 3-5 hours.
Compounds are diluted using two different protocols; one protocol is used for compounds supplied neat (weighed powder in vial) and the other protocol is used for compounds supplied in solution (20 mM in DMSO in 96-well plates). For both protocols, 25 mM Hepes and 25 mM Hepes/1% DMSO are prepared fresh to be used as diluent. The Hepes/DMSO is used as the diluent control on all experimental plates.
The following Table 1 depicts the steps for compound dilution (the last step is the addition of compound to cells/media in tissue culture plate):
Because some compounds arrive in 96-well format at 20 mM, the following Table 2 represents the protocol for their dilution (an average molecular weight of these compounds was used to calculate these dilutions and as above, the last step is the addition of compound to cells/media in tissue culture plate):
Once compounds are diluted, they are applied in duplicate on cells in tissue culture plates (prepared above). Cells are incubated with compound at 37° C. with 5% CO2 for an additional 36-48 hours.
Luciferase assays (LucLite reagent, Packard) are performed and are read on a Packard TopCount instrument. Media is removed from each 96-well plate and replaced with 100 μL PBS per well (with Mg^2+ and Ca^2+). An equal volume (100 μL) of the LucLite lysis/substrate buffer is added to each well and the plates are sealed and mixed in the dark on a rotary shaker for 15-30 minutes at room temperature. Luciferase readings are then taken on the TopCount instrument. Measurements are expressed as relative light units (RLU) and are calculated and analyzed in MS Excel as follows:
Fold Increase: amount of luciferase activity (measured in relative light units) over diluent control.
SEM: standard error of the mean for fold increase.
Activity: A compound is considered active if it results in at least a 1.5 fold increase in luciferase activity at 20 μg/mL.
Toxicity: determined by loss of signal (<0.75 fold increase).

Row | EC50 (beta amyloid 42) [µM] | EC50 (beta amyloid 40) [µM] | melting point [°C] | Compound | fold induction at 20 µg/mL [1] | Effect on Aβ42 production (beta amyloid 42) | RRA data (footnote symbols) ([1]; tested at 20 μg/mL)
1 | 4.4 | 3.5 | – | Cc1cccc(-n2nccc2C(NS(=O)(=O)c2ccc(Cl)s2)C(C)C)c1 (centres unmarked) [Example 16, 5-Chloro-N-{2-methyl-1-[1-(3-methylphenyl)-1H-pyrazol-5-yl]propyl}thiophene-2-sulfonamide] | 4 | – | –
2 | 10.7 | 5.9 | – | CCC(CC)C(NS(=O)(=O)c1ccc(Cl)s1)c1ccnn1-c1ccc(C(F)(F)F)cc1 (centres unmarked) [Example 18, 5-Chloro-N-(2-ethyl-1-{1-[4-(trifluoromethyl)phenyl]-1H-pyrazol-5-yl}butyl)thiophene-2-sulfonamide] | 2.3 | – | –
3 | 4.3 | 2.4 | – | CCC(CC)C(NS(=O)(=O)c1ccc(Cl)s1)c1ncnn1Cc1ccc(OC(F)(F)F)cc1 (centres unmarked) [Example 20, 5-Chloro-N-(2-ethyl-1-{1-[4-(trifluoromethoxy)benzyl]-1H-1,2,4-triazol-5-yl}butyl)thiophene-2-sulfonamide] | 9.8 | – | –
4 | 1.5 | 1.5 | – | CCC(CC)C(NS(=O)(=O)c1ccc(Cl)s1)c1ncnn1Cc1ccccc1 (centres unmarked) [Example 22, N-[1-(1-Benzyl-1H-1,2,4-triazol-5-yl)-2-ethylbutyl]-5-chlorothiophene-2-sulfonamide] | 7.2 | – | –
5 | 52.5 | 50.7 | – | CCC(CC)C(NS(=O)(=O)c1ccc(Cl)s1)c1nccn1Cc1ccc(OC)cc1 (centres unmarked) [Example 29, 5-Chloro-N-{2-ethyl-1-[1-(4-methoxybenzyl)-1H-imidazol-2-yl]butyl}thiophene-2-sulfonamide] | 1.9 | – | –
6 | 9.8 | 5.2 | – | CCC(CC)C(NS(=O)(=O)c1ccc(Cl)s1)c1nccn1Cc1ccc(O)cc1 (centres unmarked) [Example 30, 5-Chloro-N-{2-ethyl-1-[1-(4-hydroxybenzyl)-1H-imidazol-2-yl]butyl}thiophene-2-sulfonamide] | 8.6 | – | –
7 | – | 13.3 | – | COc1ccc(Cn2cccc2C(NS(=O)(=O)c2ccc(Cl)s2)C(C)C)cc1 (centres unmarked) [Example 32, 5-Chloro-N-{1-[1-(4-methoxybenzyl)-1H-pyrrol-2-yl]-2-methylpropyl}thiophene-2-sulfonamide] | 6.6 | increase | –
8 | 4.3 | 2.6 | – | CCC(CC)C(NS(=O)(=O)c1ccc(Cl)s1)c1ccnn1OCc1ccccc1 (centres unmarked) [Example 33, N-{1-[1-(Benzyloxy)-1H-pyrazol-5-yl]-2-ethylbutyl}-5-chlorothiophene-2-sulfonamide] | – | – | **
9 | 10.1 | 5.8 | 159 to 160 | O=S(=O)(NC(c1ccc(F)cc1)c1ccnn1-c1ccc(F)cc1)c1ccc(Cl)s1 (centres unmarked) [Example 34, 5-Chloro-N-{(4-fluorophenyl) [1-(4-fluorophenyl)-1H-pyrazol-5-yl]methyl}thiophene-2-sulfonamide] | – | – | –
10 | – | 23 | 135 to 136.4 | CCC(CC)C(NS(=O)(=O)c1ccc(Cl)cc1)c1ccnn1-c1ccccc1 (centres unmarked) [Example 36, 4-Chloro-N-[2-ethyl-1-(1-phenyl-1H-pyrazol-5-yl)butyl]benzenesulfonamide] | – | increase | –
11 | – | 85.2 | 134.6 to 136.6 | CCC(CC)C(NS(=O)(=O)c1ccc(C#N)cc1)c1ccnn1-c1ccccc1 (centres unmarked) [Example 37, 4-Cyano-N-[2-ethyl-1-(1-phenyl-1H-pyrazol-5-yl)butyl]benzenesulfonamide] | – | increase | –
12 | – | 13.3 | 116 to 119.6 | CCC(CC)C(NS(=O)(=O)c1cc(Cl)c(Cl)s1)c1ccnn1-c1ccccc1 (centres unmarked) [Example 38, 4,5-Dichloro-N-[2-ethyl-1-(1-phenyl-1H-pyrazol-5-yl)butyl]thiophene-2-sulfonamide] | – | increase | –
13 | – | 25.5 | 56 to 66 | CCC(CC)C(NS(=O)(=O)c1ccc(Cl)c(Cl)c1)c1ccnn1-c1ccccc1 (centres unmarked) [Example 39, 3,4-Dichloro-N-[2-ethyl-1-(1-phenyl-1H-pyrazol-5-yl)butyl]benzenesulfonamide] | – | increase | –
14 | 7.5 | 4.1 | 120 to 120.7 | CCC(CC)C(NS(=O)(=O)c1ccc(Br)s1)c1ccnn1-c1ccccc1 (centres unmarked) [Example 40, 5-Bromo-N-[2-ethyl-1-(1-phenyl-1H-pyrazol-5-yl)butyl]thiophene-2-sulfonamide] | – | – | –
15 | – | 47.9 | 37.8 to 54 | CCC(CC)C(c1ccnn1-c1ccccc1)N(C)S(=O)(=O)c1ccc(C#N)cc1 (centres unmarked) [Example 43, 4-Cyano-N-[2-ethyl-1-(1-phenyl-1H-pyrazol-5-yl)butyl]-N-methylbenzenesulfonamide] | – | increase | –
16 | – | 35.7 | 86.5 to 89 | CCC(CC)C(c1ccnn1-c1ccccc1)N(C)S(=O)(=O)c1ccc(Cl)cc1 (centres unmarked) [Example 44, 4-Chloro-N-[2-ethyl-1-(1-phenyl-1H-pyrazol-5-yl)butyl]-N-methylbenzenesulfonamide] | – | – | –
17 | – | 33.6 | 99 to 100.4 | CCC(CC)C(c1ccnn1-c1ccccc1)N(C)S(=O)(=O)c1cc(Cl)c(Cl)s1 (centres unmarked) [Example 45, 4,5-Dichloro-N-[2-ethyl-1-(1-phenyl-1H-pyrazol-5-yl)butyl]-N-methylthiophene-2-sulfonamide] | – | increase | –
